Results from patent publication US9645154B2, “Method for detecting cancer cell” (ARKRAY, Inc., priority 2010, dated 2017).

Tests used:
[1] = test system: Breast cancer cell line MCF-7 and blood cells (leucocytes and erythrocytes); test: 2-NBDG incorporation observed visually under a fluorescence microscope; assay type: cell-based, human; details: sample 1, mixture of MCF-7 and blood cells, 37° C., 40 minutes
Protocol: From venous blood of a healthy person, a […] and precipitates were separated by centrifugation according to the conventional method. From the […], a leucocyte layer and an erythrocyte layer were partially collected, and then resuspended in PBS to prepare a leucocyte sample and a erythrocyte sample, respectively.
Breast cancer cell line MCF-7 (purchased from DS Pharma Biomedical Co., Ltd). was cultured at 37° C. with 5% (v/v) CO2 using α-MEM culture medium (Invitrogen, supplemented with 10% (v/v) FBS, 2 mM L-glutamine, 100 U/mL penicillin and 100 μg/mL streptomycin). Immediately before the test, the cells were harvested with 0.25% trypsin-EDTA and washed with PBS, thereby preparing a cancer cell line sample.
To each of 300 μL (4×10^5 cells/mL) of the cancer cell line, the blood cells (leucocytes and erythrocytes) or a mixture thereof was added 30 μL of 10 mM 2-[N-(7-nitrobenz-2-oxa-1,3-diazol-4-yl)amino]-2-deoxy-D-glucose (2-NBDG) (Wako Pure Chemical Industries, Ltd.) according to the description in Table 2, thereby preparing samples 1 to 7. These samples were then incubated at 37° C. for 40 minutes. To the sample to which 2-NBDG was not added, a corresponding amount of PBS was added instead of 2-NBDG.
After incubation, each sample was centrifuged at 2,000 rpm for 5 minutes (Hitachi Ltd.) to harvest the cells. To the harvested cells was added 10 μL of an anti-EpCAM antibody-PE (R&D systems), and the mixture was allowed to stand for 30 minutes in the cool and dark place.
After 30 minutes, the mixture was washed with 1,000 μL of PBS, and the cells were harvested by centrifugation at 2000 rpm for 5 minutes in accordance with the conventional method.
The harvested cells were resuspended in 50 μL of PBS, and the entire volume thereof was transferred to a 96-well plate, thereby preparing an observation sample.
Each of the observation samples was observed under a fluorescence microscope (Nikon Corp.), and an amount of 2-NBDG incorporated was visually observed.

[2] = test system: Mixture of blood cells and PC3 cells; test: Aminolevulinic acid labeling combined with anti-CD45/anti-CD34 and anti-EpCAM antibodies; assay type: cell-based, human; details: ALA: 0.3 mM, FeC12: 0.3 mM, Ascorbic acid: 0.3 mM, 37° C., 60 min, threshold value 216
Source text: Blood was collected from a human subject using a vacuum blood collection tube (with EDTA•2K). Blood cells were separated using HetaSep (STEMCELL Technologies) in accordance with the manufacturer's instructions.
In accordance with the conventional method, cultured human prostate cancer cell line (PC3, DS Pharma Biomedical Co., Ltd.) was harvested with trypsin (Invitrogen). The cell suspension of the harvested cancer cells was centrifuged, and the supernatant was removed. The cells were resuspended with Dulbecco's PBS (+) (Nissui Pharmaceutical Co., Ltd.) and centrifuged, and the supernatant was removed again.
The number of the cells in the suspension of the isolated blood cells was counted using a hemacytometer in accordance with the conventional method. Further, the number of the cells was also counted for the human prostate cancer cell line (PC3) in a similar manner, and the cells were added to the blood cell suspension to give a cell number of 1% of that of the blood cells. […]
The number of the cells was counted using a hemacytometer in accordance with the conventional method, and then 10^5 to 10^6 cells per sample (cell suspension) was aliquoted. […] The image was captured with a fluorescence microscope (Nikon Corp.). Protoporphyrin IX was detected with the fluorescence filter set 1, the PE-labeled anti-EpCAM antibody was detected with the fluorescence filter set 2, and the FITC-labeled anti-CD45 antibody and the FITC-labeled anti-CD34 antibody were detected with the fluorescence filter set 3.
Wavelengths for the fluorescence filter set 1: EX (excitation wavelength) 402±7.5 nm, DM 430 nm or longer, BA (fluorescence wavelength) 625±15 nm.
Wavelengths for the fluorescence filter set 2: EX (excitation wavelength) 535±25 nm, DM 575 nm or longer, BA (fluorescence wavelength) 590 nm or longer.
Wavelengths for the fluorescence filter set 3: EX (excitation wavelength) 475±15 nm, DM 505 nm or longer, BA (fluorescence wavelength) 525±10 nm. […]

| SMILES | fluorescence image of erythrocyte cell [1] | fluorescence intensity of the leucocyte cell image relative to the cancer cell [1] | observation of the cancer cell line in the fluorescence image ([1]; FIGS. 4 to 6) | False-positive rate (using α-CD45/34) ([2]; FITC-α-CD45/CD34 antibody) [%] | Positive rate ([2]; PC3 at 1% of blood cells, hemolyzed) [%] | False-positive rate (without using α-CD45/34) [2] [%] |
| --- | --- | --- | --- | --- | --- | --- |
| O=[N+]([O-])c1ccc(N[C@H]2C(O)O[C@H](CO)[C@@H](O)[C@@H]2O)c2nonc12 (stereo partly drawn) [2-NBDG, 2-[N-(7-nitrobenz-2-oxa-1,3-diazol-4-yl)amino]-2-deoxy-D-glucose] | not observed at all | equal to or less than half the fluorescence intensity of the cancer cell | clearly observed | – | – | – |
| NCC(=O)CCC(=O)O [aminolevulinic acid, 5-amino-4-oxopentanoic acid] | – | – | – | 0.0 | 85 | 1.1 |
